# Literature values, collected in patent US10500232B2, “Small molecule cellular reprogramming to generate neuronal cells” (The J. David Gladstone Institutes, a testamentary trust …, priority 2013, dated 2019).
# pEC50: −log10 of the molar value.
# Molecular target: mGlu4 (Homo sapiens, UniProt Q14833)
# Conditions: read-out: EC50 against mGlu4; cited from earlier work
# mGlu4, sequence (Q14833 33-912): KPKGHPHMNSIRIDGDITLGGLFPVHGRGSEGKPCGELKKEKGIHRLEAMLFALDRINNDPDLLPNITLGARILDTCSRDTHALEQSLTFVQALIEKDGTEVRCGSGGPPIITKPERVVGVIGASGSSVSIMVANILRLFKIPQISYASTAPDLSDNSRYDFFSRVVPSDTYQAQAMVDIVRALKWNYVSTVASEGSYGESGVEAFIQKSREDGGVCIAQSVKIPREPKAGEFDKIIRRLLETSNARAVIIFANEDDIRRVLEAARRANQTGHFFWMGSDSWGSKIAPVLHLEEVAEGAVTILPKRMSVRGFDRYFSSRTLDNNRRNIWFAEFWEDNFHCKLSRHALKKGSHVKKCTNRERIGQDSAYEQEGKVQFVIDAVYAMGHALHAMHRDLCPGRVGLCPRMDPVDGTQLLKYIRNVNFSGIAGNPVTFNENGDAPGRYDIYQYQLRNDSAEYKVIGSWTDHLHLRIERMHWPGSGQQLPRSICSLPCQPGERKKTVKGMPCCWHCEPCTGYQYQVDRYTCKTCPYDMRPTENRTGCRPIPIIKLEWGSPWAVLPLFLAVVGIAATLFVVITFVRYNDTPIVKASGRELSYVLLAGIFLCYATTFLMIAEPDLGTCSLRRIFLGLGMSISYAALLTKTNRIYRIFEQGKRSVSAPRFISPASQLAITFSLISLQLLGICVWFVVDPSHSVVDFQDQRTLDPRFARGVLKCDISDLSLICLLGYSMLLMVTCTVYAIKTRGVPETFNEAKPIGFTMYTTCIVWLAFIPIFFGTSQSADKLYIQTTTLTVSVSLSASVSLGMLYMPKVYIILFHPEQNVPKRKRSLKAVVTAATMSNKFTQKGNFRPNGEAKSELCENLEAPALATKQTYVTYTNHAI
compound,measurement,value
"COc1cc(NC(=O)c2ccccn2)ccc1Cl [ML128, N-(4-chloro-3-methoxyphenyl)pyridine-2-carboxamide]",pEC50,5.64 to 6.70
